Source: the kinase profiling compilation of Christmann-Franck et al. (2016)

What was measured:
Experiment in all cases: KINOMEscan competition binding
Details in all cases: compound 10.0 µM
[1] = system: ABL1 (human), P00519 [F317I]
[2] = system: ABL1 (human), P00519 [F317L]
[3] = system: BMX (human), P51813 [V600E]
[4] = system: EGFR (human), P00533 [A750P; 747-749 del]
[5] = system: EGFR (human), P00533 [L858R]
[6] = system: FGFR3 (human), P22607 [G697C]
[7] = system: KIT (human), P10721 [A829P]
[8] = system: LRRK2 (human), Q5S007 [G2019S]
[9] = system: MET (human), P08581 [M1250T]
[10] = system: PIK3CA (human), P42336 [E542K]
[11] = system: PIK3CA (human), P42336 [H1047L]
[12] = system: PIK3CA (human), P42336 [M1043I]
[13] = system: RET (human), P07949 [V804L]
[14] = system: EGFR (human), P00533 [G719C]
[15] = system: FLT3 (human), P36888 [D835Y]

Sequence of ABL1 (human), P00519 [F317L] (P00519 whole entry F317L, looked up): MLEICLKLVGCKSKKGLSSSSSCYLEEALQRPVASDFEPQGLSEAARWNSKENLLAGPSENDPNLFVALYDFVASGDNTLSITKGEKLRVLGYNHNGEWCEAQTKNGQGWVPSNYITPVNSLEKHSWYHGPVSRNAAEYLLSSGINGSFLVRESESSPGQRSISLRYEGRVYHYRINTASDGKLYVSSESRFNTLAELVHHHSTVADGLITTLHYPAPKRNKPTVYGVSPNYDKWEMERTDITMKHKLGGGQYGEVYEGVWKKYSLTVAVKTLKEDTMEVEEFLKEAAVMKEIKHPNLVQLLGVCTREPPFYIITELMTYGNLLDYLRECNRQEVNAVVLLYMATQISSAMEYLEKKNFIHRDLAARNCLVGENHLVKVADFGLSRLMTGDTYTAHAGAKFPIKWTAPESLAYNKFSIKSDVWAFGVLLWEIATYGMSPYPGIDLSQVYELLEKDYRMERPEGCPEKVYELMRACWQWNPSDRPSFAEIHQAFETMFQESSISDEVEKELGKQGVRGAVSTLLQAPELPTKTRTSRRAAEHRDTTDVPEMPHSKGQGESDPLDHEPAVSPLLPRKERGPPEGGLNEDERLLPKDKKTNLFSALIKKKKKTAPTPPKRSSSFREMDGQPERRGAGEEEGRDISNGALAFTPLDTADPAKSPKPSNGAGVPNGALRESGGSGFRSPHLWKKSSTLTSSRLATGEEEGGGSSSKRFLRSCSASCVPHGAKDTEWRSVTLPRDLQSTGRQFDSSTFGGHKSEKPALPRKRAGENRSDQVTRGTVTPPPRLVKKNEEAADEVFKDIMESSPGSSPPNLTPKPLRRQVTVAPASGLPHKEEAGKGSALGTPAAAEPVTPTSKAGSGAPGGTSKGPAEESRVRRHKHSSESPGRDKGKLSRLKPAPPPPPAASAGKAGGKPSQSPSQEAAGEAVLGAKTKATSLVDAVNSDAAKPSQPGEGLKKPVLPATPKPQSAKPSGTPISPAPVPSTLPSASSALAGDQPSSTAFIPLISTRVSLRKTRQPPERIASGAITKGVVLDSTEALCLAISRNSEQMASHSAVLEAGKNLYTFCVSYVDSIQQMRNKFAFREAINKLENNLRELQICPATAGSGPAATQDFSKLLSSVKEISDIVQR
Sequence of ABL1 (human), P00519 [F317I] (P00519 whole entry F317I, looked up): as the sequence (P00519 whole entry F317L, looked up) above, with L317I counted along it
Sequence of KIT (human), P10721 [A829P] (P10721 whole entry A829P, looked up): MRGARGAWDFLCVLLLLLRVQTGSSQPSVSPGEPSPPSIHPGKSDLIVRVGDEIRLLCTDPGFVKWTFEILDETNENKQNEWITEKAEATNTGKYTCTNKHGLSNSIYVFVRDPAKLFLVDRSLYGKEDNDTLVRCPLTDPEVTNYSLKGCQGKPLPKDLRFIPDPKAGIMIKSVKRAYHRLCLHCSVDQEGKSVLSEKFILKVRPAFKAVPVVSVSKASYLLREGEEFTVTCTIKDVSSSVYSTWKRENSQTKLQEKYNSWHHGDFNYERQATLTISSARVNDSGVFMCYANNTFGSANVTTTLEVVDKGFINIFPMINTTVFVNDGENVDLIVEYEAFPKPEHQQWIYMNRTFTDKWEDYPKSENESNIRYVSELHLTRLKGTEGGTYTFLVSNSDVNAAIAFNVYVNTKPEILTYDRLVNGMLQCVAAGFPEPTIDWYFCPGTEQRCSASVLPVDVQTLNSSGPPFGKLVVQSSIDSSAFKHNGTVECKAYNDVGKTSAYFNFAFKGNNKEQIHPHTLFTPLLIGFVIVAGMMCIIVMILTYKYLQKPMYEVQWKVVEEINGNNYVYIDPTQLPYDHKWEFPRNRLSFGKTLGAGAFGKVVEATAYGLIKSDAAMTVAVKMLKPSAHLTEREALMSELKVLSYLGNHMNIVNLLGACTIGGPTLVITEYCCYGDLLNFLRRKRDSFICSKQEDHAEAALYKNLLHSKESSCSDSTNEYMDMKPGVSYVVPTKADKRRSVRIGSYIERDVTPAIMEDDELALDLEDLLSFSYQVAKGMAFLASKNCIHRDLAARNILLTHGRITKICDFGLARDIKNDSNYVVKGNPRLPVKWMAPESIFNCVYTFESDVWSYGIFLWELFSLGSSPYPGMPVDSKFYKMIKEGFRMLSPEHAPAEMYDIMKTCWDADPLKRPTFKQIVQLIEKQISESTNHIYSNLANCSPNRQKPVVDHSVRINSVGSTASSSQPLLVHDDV
Sequence of FGFR3 (human), P22607 [G697C] (P22607 whole entry G697C, looked up): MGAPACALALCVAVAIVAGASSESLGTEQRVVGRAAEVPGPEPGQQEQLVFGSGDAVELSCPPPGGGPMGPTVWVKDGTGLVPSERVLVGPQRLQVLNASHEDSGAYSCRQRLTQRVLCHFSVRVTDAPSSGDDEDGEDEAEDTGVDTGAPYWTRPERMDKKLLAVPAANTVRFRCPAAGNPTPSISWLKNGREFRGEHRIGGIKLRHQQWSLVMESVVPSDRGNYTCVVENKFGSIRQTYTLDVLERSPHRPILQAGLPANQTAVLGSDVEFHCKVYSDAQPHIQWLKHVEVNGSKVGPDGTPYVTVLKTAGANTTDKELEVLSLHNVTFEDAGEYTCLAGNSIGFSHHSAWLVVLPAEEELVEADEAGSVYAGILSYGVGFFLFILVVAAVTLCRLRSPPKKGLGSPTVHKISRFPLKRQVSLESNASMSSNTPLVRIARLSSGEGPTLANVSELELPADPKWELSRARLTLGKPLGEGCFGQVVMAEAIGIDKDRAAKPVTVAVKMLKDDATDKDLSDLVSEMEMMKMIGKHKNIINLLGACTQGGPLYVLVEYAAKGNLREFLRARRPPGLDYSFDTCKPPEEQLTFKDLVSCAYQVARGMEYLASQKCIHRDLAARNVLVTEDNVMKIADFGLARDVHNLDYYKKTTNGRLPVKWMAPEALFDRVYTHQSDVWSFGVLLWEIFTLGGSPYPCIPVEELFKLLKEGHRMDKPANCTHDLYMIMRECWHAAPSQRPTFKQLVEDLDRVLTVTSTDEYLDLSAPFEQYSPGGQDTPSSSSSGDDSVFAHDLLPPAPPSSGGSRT
Sequence of PIK3CA (human), P42336 [E542K] (P42336 whole entry E542K, looked up): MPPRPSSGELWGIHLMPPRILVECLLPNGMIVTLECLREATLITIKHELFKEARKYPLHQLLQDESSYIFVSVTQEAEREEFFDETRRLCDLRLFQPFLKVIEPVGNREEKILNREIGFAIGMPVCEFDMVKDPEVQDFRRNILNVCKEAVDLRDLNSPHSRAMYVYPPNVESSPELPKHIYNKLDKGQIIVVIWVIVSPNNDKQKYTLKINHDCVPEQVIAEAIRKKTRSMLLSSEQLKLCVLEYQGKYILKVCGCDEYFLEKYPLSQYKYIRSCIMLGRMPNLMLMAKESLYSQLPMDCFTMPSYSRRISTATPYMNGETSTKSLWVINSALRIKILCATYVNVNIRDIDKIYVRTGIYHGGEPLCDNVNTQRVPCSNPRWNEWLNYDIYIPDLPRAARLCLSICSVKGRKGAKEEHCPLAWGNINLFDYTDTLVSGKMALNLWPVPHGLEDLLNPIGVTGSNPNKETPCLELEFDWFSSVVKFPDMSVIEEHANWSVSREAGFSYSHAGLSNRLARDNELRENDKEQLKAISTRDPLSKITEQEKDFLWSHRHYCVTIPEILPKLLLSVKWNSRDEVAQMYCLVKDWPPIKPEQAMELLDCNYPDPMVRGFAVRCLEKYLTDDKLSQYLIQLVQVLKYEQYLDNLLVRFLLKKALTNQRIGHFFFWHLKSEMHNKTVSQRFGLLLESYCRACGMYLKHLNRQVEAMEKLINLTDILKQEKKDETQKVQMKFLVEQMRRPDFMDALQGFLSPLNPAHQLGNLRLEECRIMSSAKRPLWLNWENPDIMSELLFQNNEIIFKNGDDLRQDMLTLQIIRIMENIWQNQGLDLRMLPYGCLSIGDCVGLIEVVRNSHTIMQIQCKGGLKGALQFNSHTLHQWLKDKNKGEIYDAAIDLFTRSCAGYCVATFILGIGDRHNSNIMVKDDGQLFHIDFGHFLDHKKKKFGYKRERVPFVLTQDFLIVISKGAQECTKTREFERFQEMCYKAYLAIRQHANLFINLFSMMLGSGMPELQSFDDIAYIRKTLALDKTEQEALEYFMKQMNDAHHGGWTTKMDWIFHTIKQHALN
Sequence of BMX (human), P51813 [V600E] (P51813 whole entry, looked up, stated change not applied): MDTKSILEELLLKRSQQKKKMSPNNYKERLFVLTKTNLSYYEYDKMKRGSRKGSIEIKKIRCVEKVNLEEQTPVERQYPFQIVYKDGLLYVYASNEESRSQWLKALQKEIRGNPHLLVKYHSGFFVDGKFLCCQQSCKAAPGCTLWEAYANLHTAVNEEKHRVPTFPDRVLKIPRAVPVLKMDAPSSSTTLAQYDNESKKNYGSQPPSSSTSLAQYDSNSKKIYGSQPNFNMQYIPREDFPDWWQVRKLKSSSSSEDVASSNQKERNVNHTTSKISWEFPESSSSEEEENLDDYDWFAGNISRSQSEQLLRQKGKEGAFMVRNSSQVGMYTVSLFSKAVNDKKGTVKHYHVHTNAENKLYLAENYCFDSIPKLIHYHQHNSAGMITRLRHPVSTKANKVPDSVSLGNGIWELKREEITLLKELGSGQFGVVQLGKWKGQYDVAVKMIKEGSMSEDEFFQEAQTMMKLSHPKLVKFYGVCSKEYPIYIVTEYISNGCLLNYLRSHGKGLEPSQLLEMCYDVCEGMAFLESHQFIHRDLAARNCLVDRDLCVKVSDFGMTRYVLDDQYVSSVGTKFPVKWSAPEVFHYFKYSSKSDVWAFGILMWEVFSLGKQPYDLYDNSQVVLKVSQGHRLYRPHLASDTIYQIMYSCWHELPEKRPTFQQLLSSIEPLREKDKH
Sequence of PIK3CA (human), P42336 [H1047L] (P42336 whole entry H1047L, looked up): as the sequence (P42336 whole entry E542K, looked up) above, with K542E, H1047L counted along it
Sequence of PIK3CA (human), P42336 [M1043I] (P42336 whole entry M1043I, looked up): as the sequence (P42336 whole entry E542K, looked up) above, with K542E, M1043I counted along it

kinase still bound, per cent of control [1] [%] | kinase still bound, per cent of control [2] [%] | kinase still bound, per cent of control [3] [%] | kinase still bound, per cent of control [4] [%] | kinase still bound, per cent of control [5] [%] | kinase still bound, per cent of control [6] [%] | kinase still bound, per cent of control [7] [%] | kinase still bound, per cent of control [8] [%] | kinase still bound, per cent of control [9] [%] | kinase still bound, per cent of control [10] [%] | kinase still bound, per cent of control [11] [%] | kinase still bound, per cent of control [12] [%] | kinase still bound, per cent of control [13] [%] | kinase still bound, per cent of control [14] [%] | kinase still bound, per cent of control [15] [%] | SMILES
55 | 100 | 56 | 100 | 100 | 79 | 72 | 41 | 100 | 100 | 100 | 100 | 64 |  |  | N#CCNC(=O)c1ccc(-c2ccnc(Nc3ccc(N4CCOCC4)cc3)n2)cc1
100 | 70 | 92 | 50 | 47 | 26 | 57 | 60 | 31 | 100 | 73 |  | 24 | 94 | 26 | COc1cc2ncn(-c3cc(OCc4ccccc4C(F)(F)F)c(C(N)=O)s3)c2cc1OC
